From the supplement of paper PMC8149375

What was measured:
Settings in all cases: treatment: drug + dasatinib (fixed dose, not stated); 5 days
[1] = tested on: ACHN; assay: AUC of dose-response viability curve, drug + dasatinib, normalised to DMSO (arbitrary (AUC of normalised viability)); higher = less growth inhibition
Protocol: (§1)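 Primary HTS combination arm: 8 RCC cell lines treated with 8 doses (up to 10 uM) of each library drug plus a fixed dose of dasatinib (dose not stated) for 5 days; viability read by CellTiter-Glo and normalised to DMSO. GI50 was fitted with XLfit, AUC is the area under the dose-response curve, and minimum viability is the lowest fraction of DMSO viability across doses.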

[2] = tested on: SN12C; assay: as above
Protocol: as §1

[3] = tested on: 786-O; assay: as above
Protocol: as §1

[4] = tested on: CAKI-1; assay: as above
Protocol: as §1

[5] = tested on: TK-10; assay: as above
Protocol: as §1

[6] = tested on: UO-31; assay: as above
Protocol: as §1

[7] = tested on: A498; assay: as above
Protocol: as §1

[8] = tested on: 769-P; assay: as above
Protocol: as §1

[9] = tested on: ACHN; assay: GI50 of drug in presence of dasatinib; higher = less potent
Protocol: as §1

[10] = tested on: SN12C; assay: as above
Protocol: as §1

[11] = tested on: 786-O; assay: as above
Protocol: as §1

[12] = tested on: CAKI-1; assay: as above
Protocol: as §1

[13] = tested on: TK-10; assay: as above
Protocol: as §1

[14] = tested on: UO-31; assay: as above
Protocol: as §1

[15] = tested on: A498; assay: as above
Protocol: as §1

[16] = tested on: 769-P; assay: as above
Protocol: as §1

[17] = tested on: ACHN; assay: minimum viability across doses, drug + dasatinib, relative to DMSO (fraction); higher = less growth inhibition
Protocol: as §1

[18] = tested on: SN12C; assay: as above
Protocol: as §1

[19] = tested on: 786-O; assay: as above
Protocol: as §1

[20] = tested on: CAKI-1; assay: as above
Protocol: as §1

[21] = tested on: TK-10; assay: as above
Protocol: as §1

[22] = tested on: UO-31; assay: as above
Protocol: as §1

[23] = tested on: A498; assay: as above
Protocol: as §1

[24] = tested on: 769-P; assay: as above
Protocol: as §1

Structure (SMILES) | GI50 of drug [9] [nM] | GI50 of drug [11] [nM] | AUC of dose-response viability curve [1] | AUC of dose-response viability curve [2] | AUC of dose-response viability curve [3] | AUC of dose-response viability curve [4] | AUC of dose-response viability curve [5] | AUC of dose-response viability curve [6] | AUC of dose-response viability curve [7] | AUC of dose-response viability curve [8] | GI50 of drug [10] [nM] | GI50 of drug [12] [nM] | GI50 of drug [13] [nM] | GI50 of drug [14] [nM] | GI50 of drug [15] [nM] | GI50 of drug [16] [nM] | minimum viability across doses [17] | minimum viability across doses [18] | minimum viability across doses [19] | minimum viability across doses [20] | minimum viability across doses [21] | minimum viability across doses [22] | minimum viability across doses [23] | minimum viability across doses [24]
Cc1cnc(Nc2ccc(OCCN3CCCC3)cc2)nc1Nc1cccc(S(=O)(=O)NC(C)(C)C)c1 + Cc1nc(Nc2ncc(C(=O)Nc3c(C)cccc3Cl)s2)cc(N2CCN(CCO)CC2)n1 [dasatinib] | 136 | 492 | 1.25 | 1.97 | 1.73 | 1.66 | 1.82 | 3.1 | 3.11 | 2.06 | 949 | 376 | 357 | 913 | 3500 | 1340 | 0.00238 | 0.00825 | 0.0103 | 0.00319 | 0.00313 | 0.00873 | 0.0831 | 0.0211
Nc1ccc(C(=O)Nc2cccc(-c3nc(N4CCOCC4)c4oc5ncccc5c4n3)c2)cn1 + Cc1nc(Nc2ncc(C(=O)Nc3c(C)cccc3Cl)s2)cc(N2CCN(CCO)CC2)n1 [dasatinib] | 361 | 476 | 1.68 | 2.16 | 1.81 | 1.61 | 2.16 | 3.17 | 3.03 | 1.99 | 2590 | 256 | 973 | 1510 | 6740 | 850 | 0.152 | 0.345 | 0.00383 | 0.0783 | 0.0664 | 0.0122 | 0.283 | 0.0371
COc1cc2c(Nc3ccc(NC(=O)c4ccccc4)cc3)ncnc2cc1OCCCN1CCOCC1 + Cc1nc(Nc2ncc(C(=O)Nc3c(C)cccc3Cl)s2)cc(N2CCN(CCO)CC2)n1 [dasatinib] | 4.24 | 1210 | 1.54 | 2.43 | 2.13 | 1.76 | 2.35 | 3.27 | 3.33 | 2.17 | > 10000 | 385 | 4120 | 5770 | 9270 | 2910 | 0.095 | 0.383 | 0.0181 | 0.0572 | 0.191 | 0.0966 | 0.283 | 0.24

Now from value to compound, other results behind:

GI50 of drug [9] [nM] | GI50 of drug [11] [nM] | Structure (SMILES) | AUC of dose-response viability curve [1] | AUC of dose-response viability curve [2] | AUC of dose-response viability curve [3] | AUC of dose-response viability curve [4] | AUC of dose-response viability curve [5] | AUC of dose-response viability curve [6] | AUC of dose-response viability curve [7] | AUC of dose-response viability curve [8] | GI50 of drug [10] [nM] | GI50 of drug [12] [nM] | GI50 of drug [13] [nM] | GI50 of drug [14] [nM] | GI50 of drug [15] [nM] | GI50 of drug [16] [nM] | minimum viability across doses [17] | minimum viability across doses [18] | minimum viability across doses [19] | minimum viability across doses [20] | minimum viability across doses [21] | minimum viability across doses [22] | minimum viability across doses [23] | minimum viability across doses [24]
9.64 | 10.7 | CNC(=O)Nc1ccc(-c2nc(N3CC4CCC(C3)O4)c3cnn(C4CCC5(CC4)OCCO5)c3n2)cc1 + Cc1nc(Nc2ncc(C(=O)Nc3c(C)cccc3Cl)s2)cc(N2CCN(CCO)CC2)n1 [dasatinib] | 0.872 | 1.24 | 0.872 | 0.907 | 1.19 | 1.2 | 1.64 | 1.16 | 32.3 | 16.7 | 32.5 | 38.8 | 121 | 36.6 | 0.0427 | 0.116 | 0.00307 | 0.0306 | 0.0572 | 0.00565 | 0.0731 | 0.0698
> 10000 | > 10000 | C[C@@H](N)[C@H]1CC[C@H](C(=O)Nc2ccncc2)CC1.Cl.Cl + Cc1nc(Nc2ncc(C(=O)Nc3c(C)cccc3Cl)s2)cc(N2CCN(CCO)CC2)n1 [dasatinib] | 2.61 | 2.5 | 2.82 | 2.31 | 2.98 | 3.41 | 3.4 | 2.34 | > 10000 | > 10000 | > 10000 | > 10000 | > 10000 | > 10000 | 0.673 | 0.657 | 0.699 | 0.584 | 0.754 | 0.697 | 0.877 | 0.588
1130 | 323 | Cc1nc(NC(=O)N2CCC[C@H]2C(N)=O)sc1-c1csc(C(C)(C)C)n1 [A66] + Cc1nc(Nc2ncc(C(=O)Nc3c(C)cccc3Cl)s2)cc(N2CCN(CCO)CC2)n1 [dasatinib] | 2.1 | 2.33 | 1.88 | 2.31 | 2.49 | 3.38 | 3.64 | 2.43 | > 10000 | > 10000 | > 10000 | > 10000 | > 10000 | > 10000 | 0.429 | 0.527 | 0.352 | 0.539 | 0.561 | 0.761 | 0.784 | 0.548
> 10000 | > 10000 | CC1(C)CCC(CN2CCN(c3ccc(C(=O)NS(=O)(=O)c4ccc(NCC5CCOCC5)c([N+](=O)[O-])c4)c(Oc4cnc5[nH]ccc5c4)c3)CC2)=C(c2ccc(Cl)cc2)C1 [ABT-199 (GDC-0199 )] + Cc1nc(Nc2ncc(C(=O)Nc3c(C)cccc3Cl)s2)cc(N2CCN(CCO)CC2)n1 [dasatinib] | 2.01 | 2.51 | 2.43 | 2.29 | 2.39 | 3.9 | 3.56 | 2.58 | > 10000 | > 10000 | > 10000 | > 10000 | > 10000 | > 10000 | 0.542 | 0.68 | 0.586 | 0.592 | 0.61 | 1 | 0.899 | 0.692
